Reference: US9023789B2, “Amylin analogs and pharmaceutical compositions thereof” (Novo Nordisk A/S, priority 2012, dated 2015)
pEC50, pIC50: −log10 of the molar value. Where two headings read alike, the source gives them in different places.

What was measured:
[1] = target: T1, rat calcitonin receptor (Rattus norvegicus, UniProt P32214); assay: ASSAY (VIII) binding to the rat calcitonin receptor; settings: Table 7, read-out: rCTR bind IC50
T1 construct: expressed in transfected cells; host or cells: BHK tk'ts 13 (transient, FuGENE 6), membranes
T1 sequence (P32214 25-479 isoform P32214-2 limits assumed): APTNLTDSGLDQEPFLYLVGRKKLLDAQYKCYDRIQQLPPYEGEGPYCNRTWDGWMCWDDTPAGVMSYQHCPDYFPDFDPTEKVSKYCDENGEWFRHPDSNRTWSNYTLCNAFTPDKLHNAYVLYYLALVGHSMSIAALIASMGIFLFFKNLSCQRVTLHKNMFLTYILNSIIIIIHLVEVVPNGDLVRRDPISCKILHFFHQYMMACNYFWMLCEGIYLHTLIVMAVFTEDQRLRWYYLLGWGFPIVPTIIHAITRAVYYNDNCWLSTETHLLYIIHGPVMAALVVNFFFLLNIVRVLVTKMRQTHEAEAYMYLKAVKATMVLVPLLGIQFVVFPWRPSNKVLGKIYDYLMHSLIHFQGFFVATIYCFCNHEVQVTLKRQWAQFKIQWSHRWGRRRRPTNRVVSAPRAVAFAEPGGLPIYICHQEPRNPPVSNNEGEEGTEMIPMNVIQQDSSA
Method in brief: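 Transfect BHK tk′ts 13 cells transiently with rat calcitonin receptor, culture in DMEM containing 10% FBS, collect cells about 48 hours later, then prepare membranes.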

[2] = target: T2, rat amylin receptor (rat calcitonin receptor + rat RAMP 3) (Rattus norvegicus, UniProt P32214+Q9JJ73); assay: ASSAY (VI) binding to the rat amylin receptor; settings: for pIC50: binding to rat amylin receptor, read-out: rAmylin-R bind IC50
T2 construct: expressed in transfected cells; host or cells: BHK tk'ts 13 (transient, FuGENE 6), membranes
T2 sequence (P32214 25-479 isoform P32214-2 limits assumed): T1 sequence (P32214 25-479 isoform P32214-2 limits assumed)
T2 sequence (Q9JJ73 23-147 partner): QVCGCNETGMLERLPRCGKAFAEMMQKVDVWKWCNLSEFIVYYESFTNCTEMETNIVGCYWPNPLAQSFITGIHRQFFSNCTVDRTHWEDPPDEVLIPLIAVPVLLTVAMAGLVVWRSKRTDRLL
Method in brief: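 This assay measured binding to the rat amylin receptor. BHK tk′ts 13 cells were transiently transfected with the rat calcitonin receptor using FuGENE® 6 (Roche), following the manufacturer's recommendations. About 48 hours after transfection, the cells were harvested and membranes were prepared from them for the binding determination.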

[3] = target: T3, human amylin 3(a) receptor (human calcitonin receptor + RAMP-3) in BHK570 cells (Homo sapiens, UniProt O60896+P30988); assay: ASSAY (II)a functional assay, human amylin receptor (CRE luciferase); assay type: cell-based
T3 construct: expressed in transfected cells
Method in brief: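 Ligand exposure 3 h at 37 °C, 5% CO2 in DMEM with 10% FBS, 10 mM Hepes pH 7.4. cAMP-driven luciferase read by luminescence after 30 min LucLite at room temperature.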

[4] = ASSAY (IV) determination of solubility; assay type: physicochemical
Method in brief: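 Polypeptide stock in water ([…]) was mixed 1:1 with 100 mM buffers: glycylglycine at pH 3.0, 4.0, 5.0 and bistrispropane at pH 6.0, 6.5, 7.0, 7.5, 8.0. After 18 hours at room temperature, samples were centrifuged and polypeptide concentration measured by UPLC.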

[5] = target: T4, human amylin receptor (membranes from Amylin 3(a)/CRE-luc cells) (Homo sapiens, UniProt O60896+P30988); assay: ASSAY (V) binding to the human amylin receptor (SPA, 125I-rat amylin);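 further: competition binding of cell membranes (35 ng/µL) mixed with SPA beads in 384-well plates at 40 µL total volume, read by scintillation counting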
T4 construct: expressed in transfected cells
T4 sequence (P30988 25-474): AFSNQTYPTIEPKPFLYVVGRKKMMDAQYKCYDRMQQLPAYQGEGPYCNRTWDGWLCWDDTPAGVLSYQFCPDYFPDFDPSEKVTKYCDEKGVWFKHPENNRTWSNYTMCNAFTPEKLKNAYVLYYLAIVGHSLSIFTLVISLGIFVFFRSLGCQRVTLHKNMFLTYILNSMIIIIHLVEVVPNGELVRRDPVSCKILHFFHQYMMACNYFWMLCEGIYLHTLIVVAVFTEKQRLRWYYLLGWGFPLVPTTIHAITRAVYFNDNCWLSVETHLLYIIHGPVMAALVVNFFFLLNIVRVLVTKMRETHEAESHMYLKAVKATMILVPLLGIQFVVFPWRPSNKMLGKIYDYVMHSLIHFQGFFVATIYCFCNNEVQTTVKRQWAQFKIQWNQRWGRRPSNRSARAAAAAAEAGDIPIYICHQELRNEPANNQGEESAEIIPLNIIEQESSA
T4 sequence (O60896 24-148 partner): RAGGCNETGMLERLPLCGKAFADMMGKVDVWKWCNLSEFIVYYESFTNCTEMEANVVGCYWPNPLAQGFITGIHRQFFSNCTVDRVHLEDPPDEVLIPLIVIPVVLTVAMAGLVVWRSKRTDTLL

[6] = Table 7, rat binding selectivity, rCTR IC50 / rAmylin-R IC50
[7] = Table 7a (preferred compounds), rat binding selectivity, rCTR IC50 / rAmylin-R IC50
[8] = ratio of rCTR bind IC50 to rAmylin-R bind IC50
[9] = hCTR funct. EC50 divided by hAmylin-R funct. EC50
[10] = hCTR funct. EC50 over hAmylin-R funct. EC50
[11] = human functional selectivity: hCTR funct. EC50 / hAmylin-R funct. EC50
[12] = bistrispropane buffer, pH 6.5, read-out: Solubility pH 6.5 Concentration
[13] = bistrispropane buffer, pH 7.5, read-out: Solubility pH 7.5 Concentration
[14] = bistrispropane buffer, pH 6.0, read-out: Solubility pH 6.0 Concentration
[15] = bistrispropane buffer, pH 7.0, read-out: Solubility pH 7.0 Concentration
[16] = bistrispropane buffer, pH 8.0, read-out: Solubility pH 8.0 Concentration
[17] = glycylglycine buffer, pH 3.0, read-out: Solubility pH 3.0 Concentration
[18] = glycylglycine buffer, pH 4.0, read-out: Solubility pH 4.0 Concentration
[19] = glycylglycine buffer, pH 5.0, read-out: Solubility pH 5.0 Concentration
[20] = Table 5, selectivity, hCTR bind IC50 / hAmylin-R bind IC50
[21] = Table 5a, selectivity, hCTR bind IC50 / hAmylin-R bind IC50
[22] = Table 5b, selectivity, hCTR bind IC50 / hAmylin-R bind IC50
[23] = Table 5c, selectivity, hCTR bind IC50 / hAmylin-R bind IC50
[24] = Table 7, human binding selectivity, included for comparison
[25] = Table 7a (preferred compounds), human binding selectivity, included for comparison
[26] = ratio of human calcitonin receptor binding IC50 to human amylin receptor binding IC50

CC[C@H](C)[C@H](NC(=O)[C@H](C)NC(=O)CNC(=O)[C@H](Cc1ccccc1)NC(=O)[C@H](CC(N)=O)NC(=O)[C@@H]1CCCN1C(=O)[C@H](CO)NC(=O)[C@H](CO)NC(=O)[C@H](Cc1c[nH]cn1)NC(=O)[C@H](CCCNC(=N)N)NC(=O)[C@H](CC(C)C)NC(=O)[C@H](Cc1ccccc1)NC(=O)[C@H](Cc1c[nH]cn1)NC(=O)[C@H](C)NC(=O)[C@H](CC(C)C)NC(=O)[C@H](CCCNC(=N)N)NC(=O)[C@H](CCC(N)=O)NC(=O)[C@@H](NC(=O)[C@H](C)NC(=O)[C@@H]1CSSC[C@H](NC(=O)[C@@H](N)CCCCNC(=O)CC[C@H](NC(=O)CC[C@H](NC(=O)CCCCCCCCCCCCCCCCCCC(=O)O)C(=O)O)C(=O)O)C(=O)N[C@@H](CC(N)=O)C(=O)N[C@@H]([C@@H](C)O)C(=O)N[C@@H](C)C(=O)N[C@@H]([C@@H](C)O)C(=O)N1)[C@@H](C)O)C(=O)N1CCC[C@H]1C(=O)N[C@@H](CO)C(=O)N[C@@H](CO)C(=O)N[C@H](C(=O)N[C@@H](CC(N)=O)C(=O)N[C@H](C(=O)NCC(=O)N[C@@H](CO)C(=O)N[C@@H](CC(N)=O)C(=O)N[C@H](C(=O)N[C@@H](Cc1ccc(O)cc1)C(N)=O)[C@@H](C)O)C(C)C)[C@@H](C)O [Example 92]
pIC50 [1]: 6.98 | pIC50 ([2]; Table 7): 9.18 | Ratio rCT/rAmylin binding [2, 6]: 156.4 | Ratio rCT/rAmylin binding [2, 7]: 156.4 | Ratio rCT/rAmylin binding [2, 8]: 156.4 | Ratio hCT/hAmylin funct. [3, 9]: 28.0 | Ratio hCT/hAmylin funct. [3, 10]: 28.0 | Ratio hCT/hAmylin funct. [3, 11]: 28.0 | solubility at 18 h [4, 12]: ≥ 200 µM | solubility at 18 h [4, 13]: ≥ 200 µM | solubility at 18 h [4, 14]: ≥ 200 µM | solubility at 18 h [4, 15]: ≥ 200 µM | solubility at 18 h [4, 16]: ≥ 200 µM | solubility at 18 h [4, 17]: ≥ 200 µM | solubility at 18 h [4, 18]: ≥ 200 µM | solubility at 18 h [4, 19]: ≥ 200 µM | Ratio hCT/hAmylin binding [5, 20]: 145.0 | Ratio hCT/hAmylin binding [5, 21]: 145.0 | Ratio hCT/hAmylin binding [5, 22]: 145.0 | Ratio hCT/hAmylin binding [5, 23]: 145.0 | Ratio hCT/hAmylin binding [5, 24]: 145.0 | Ratio hCT/hAmylin binding [5, 25]: 145.0 | Ratio hCT/hAmylin binding [5, 26]: 145.0

CC[C@H](C)[C@H](NC(=O)[C@H](C)NC(=O)CNC(=O)[C@H](Cc1ccccc1)NC(=O)[C@H](CC(N)=O)NC(=O)[C@@H]1CCCN1C(=O)[C@H](CO)NC(=O)[C@H](CO)NC(=O)[C@H](Cc1c[nH]cn1)NC(=O)[C@H](CCCNC(=N)N)NC(=O)[C@H](CC(C)C)NC(=O)[C@H](Cc1ccccc1)NC(=O)[C@H](CC(N)=O)NC(=O)[C@H](C)NC(=O)[C@H](CC(C)C)NC(=O)[C@H](CCCNC(=N)N)NC(=O)[C@H](CCC(N)=O)NC(=O)[C@@H](NC(=O)[C@H](C)NC(=O)[C@@H]1CSSC[C@H](NC(=O)[C@@H](N)CCCCNC(=O)COCCOCCNC(=O)CCCCCCCCCCCCCCCCCCC(=O)O)C(=O)N[C@@H](CC(N)=O)C(=O)N[C@@H]([C@@H](C)O)C(=O)N[C@@H](C)C(=O)N[C@@H]([C@@H](C)O)C(=O)N1)[C@@H](C)O)C(=O)N1CCC[C@H]1C(=O)N[C@@H](CO)C(=O)N[C@@H](CO)C(=O)N[C@H](C(=O)N[C@@H](CC(N)=O)C(=O)N[C@H](C(=O)NCC(=O)N[C@@H](Cc1c[nH]cn1)C(=O)N[C@@H](CC(N)=O)C(=O)N[C@H](C(=O)N[C@@H](Cc1ccc(O)cc1)C(N)=O)[C@@H](C)O)C(C)C)[C@@H](C)O [Example 91]
pIC50 [1]: 7.53 | pIC50 ([2]; Table 7): 9.41 | Ratio rCT/rAmylin binding [2, 6]: 76.3 | Ratio rCT/rAmylin binding [2, 7]: 76.3 | Ratio rCT/rAmylin binding [2, 8]: 76.3 | Ratio hCT/hAmylin funct. [3, 9]: 36.9 | Ratio hCT/hAmylin funct. [3, 10]: 36.9 | Ratio hCT/hAmylin funct. [3, 11]: 36.9 | solubility at 18 h [4, 12]: ≥ 200 µM | solubility at 18 h [4, 13]: ≥ 200 µM | solubility at 18 h [4, 14]: ≥ 200 µM | solubility at 18 h [4, 15]: ≥ 200 µM | solubility at 18 h [4, 16]: ≥ 200 µM | solubility at 18 h [4, 17]: ≥ 200 µM | solubility at 18 h [4, 18]: ≥ 200 µM | solubility at 18 h [4, 19]: ≥ 200 µM | Ratio hCT/hAmylin binding [5, 20]: 100.8 | Ratio hCT/hAmylin binding [5, 21]: 100.8 | Ratio hCT/hAmylin binding [5, 22]: 100.8 | Ratio hCT/hAmylin binding [5, 23]: 100.8 | Ratio hCT/hAmylin binding [5, 24]: 100.8 | Ratio hCT/hAmylin binding [5, 25]: 100.8 | Ratio hCT/hAmylin binding [5, 26]: 100.8

CC[C@H](C)[C@H](NC(=O)[C@H](C)NC(=O)CNC(=O)[C@H](Cc1ccccc1)NC(=O)[C@H](CC(N)=O)NC(=O)[C@@H]1CCCN1C(=O)[C@H](CO)NC(=O)[C@H](CO)NC(=O)[C@H](Cc1c[nH]cn1)NC(=O)[C@H](CCCNC(=N)N)NC(=O)[C@H](CC(C)C)NC(=O)[C@H](Cc1ccccc1)NC(=O)[C@H](CC(N)=O)NC(=O)[C@H](C)NC(=O)[C@H](CC(C)C)NC(=O)[C@H](CCCNC(=N)N)NC(=O)[C@H](CCC(N)=O)NC(=O)[C@@H](NC(=O)[C@H](C)NC(=O)[C@@H]1CSSC[C@H](NC(=O)[C@@H](N)CCCCNC(=O)COCCOCCNC(=O)CC[C@H](NC(=O)CCCCCCCCCCCCCCCCCCC(=O)O)C(=O)O)C(=O)N[C@@H](CC(N)=O)C(=O)N[C@@H]([C@@H](C)O)C(=O)N[C@@H](C)C(=O)N[C@@H]([C@@H](C)O)C(=O)N1)[C@@H](C)O)C(=O)N1CCC[C@H]1C(=O)N[C@@H](CO)C(=O)N[C@@H](CO)C(=O)N[C@H](C(=O)N[C@@H](CC(N)=O)C(=O)N[C@H](C(=O)NCC(=O)N[C@@H](CO)C(=O)N[C@@H](CC(N)=O)C(=O)N[C@H](C(=O)N[C@@H](Cc1ccc(O)cc1)C(N)=O)[C@@H](C)O)C(C)C)[C@@H](C)O [Example 41]
pIC50 [1]: 7.13 | pIC50 ([2]; Table 7): 8.86 | Ratio rCT/rAmylin binding [2, 6]: 54.0 | Ratio rCT/rAmylin binding [2, 7]: 54.0 | Ratio rCT/rAmylin binding [2, 8]: 54.0 | Ratio hCT/hAmylin funct. [3, 9]: 16.7 | Ratio hCT/hAmylin funct. [3, 10]: 16.7 | pEC50 ([3]; human amylin receptor functional potency, assay (II), read-out: hAmylin-R funct. EC50): 9.59 | Ratio hCT/hAmylin funct. [3, 11]: 16.7 | pIC50 ([5]; Table 4, read-out: hAmylin-R bind IC50): 9.37 | Ratio hCT/hAmylin binding [5, 20]: 49.9 | Ratio hCT/hAmylin binding [5, 21]: 49.9 | Ratio hCT/hAmylin binding [5, 22]: 49.9 | Ratio hCT/hAmylin binding [5, 23]: 49.9 | Ratio hCT/hAmylin binding [5, 24]: 49.9 | Ratio hCT/hAmylin binding [5, 25]: 49.9 | Ratio hCT/hAmylin binding [5, 26]: 49.9
